The text below walks through data of US10251861B2, “Methods for treating burn and scar injury using tocotrienol compositions” (Ohio State Innovation Foundation, priority 2012, dated 2019).

For series [1] the following is noted: per day; Food and Nutrition Board of the Institute of Medicine; also printed as 1,500 IU; cited from earlier work.
The subject of series [2] is NF-KB activation. As to conditions: cited from earlier work; for tumor necrosis factor a (TNF-a)-induced NF-KB activation: similar dose of both compounds.
Series [3] concerns IKBa kinase (IKK). As to conditions: cited from earlier work.
Series [4] has as its system Akt. As to conditions: cited from earlier work.
For series [5], the system named is burn-induced scar. Nature of the series: Burn-induced scar outcome after topical tocotrienol (FIG. 1). The series is classed as in vivo. To be noted: topical treatment vs placebo; 65 days after burn injury; n=8; p<0.05. The protocol: (§1) FIG. 1A-FIG. 1D. Topical vitamin E alpha-tocotrienol improves scar outcome. Alpha-tocotrienol content and scar outcomes were assessed in skin 65 days after burn injury. Representative placebo and T3-treated burn scars depicted (A) (scale bar=1 cm). […] Color (C) and contour (D) were judged by blinded reviewers according to their respective 5-point scales. […] Data are mean+SD (n=8); *p<0.05.

The nature of series [6]: Alpha-tocotrienol content in burn scar tissue (FIG. 1B). The series is classed as in vivo. To be noted: topical treatment vs placebo; skin 65 days after burn injury; n=8; p<0.05. Here is the method:
as §1

A short description of series [7]: Ongoing IRB protocol 200500034, oral TCT supplementation before surgery. The series is classed as in vivo, human. Here is the method: In this protocol, patients are being supplemented 200 mg TCT twice a day for a minimum of 4 weeks prior to surgery. The maximum supplementation has been for over a year (currently on-going supplementation)
(§2) The inventors have also observed that oral supplementation in animals results in enhancement of tocotrienol in tissues such as skin, brain, lung etc. Levels of tocotrienol in human tissues following supplementation is currently being investigated by the inventors' laboratory (IRB protocol 200500034). The patients in the inventors' ongoing study are being orally supplemented with 200 mg twice a day. Recently, pharmacokinetic studies have been performed where humans have been orally supplemented with tocotrienol (dose: 692 mg). Based on this work and the inventors' current study, the inventors plan to use (200×2=400 mg/day; note that for alpha-tocopherol 1 mg=1.51 U) for the inventors' study.
In this protocol, patients are being supplemented 200 mg TCT twice a day for a minimum of 4 weeks prior to surgery.
In this protocol, patients are being supplemented 200 mg TCT twice a day for a minimum of 4 weeks prior to surgery. The maximum supplementation has been for over a year (currently on-going supplementation).

Series [8] is described as follows: Oral tocotrienol supplementation in animals, tissue levels. The series is classed as in vivo. The protocol: as §2
Series [9] has as its system IL-1 and IL-6 in serum. To be noted: treated rats; vs before nicotine and tocotrienol treatment; cited from earlier work.
The subject of series [10] is adhesion molecules (ICAM, VCAM, and E-selectin). As to conditions: compared among forms of vitamin E; cited from earlier work.
For series [11], the target named is T1, HMG-CoA reductase (Homo sapiens, UniProt P04035).
T1 sequence (P04035 1-888): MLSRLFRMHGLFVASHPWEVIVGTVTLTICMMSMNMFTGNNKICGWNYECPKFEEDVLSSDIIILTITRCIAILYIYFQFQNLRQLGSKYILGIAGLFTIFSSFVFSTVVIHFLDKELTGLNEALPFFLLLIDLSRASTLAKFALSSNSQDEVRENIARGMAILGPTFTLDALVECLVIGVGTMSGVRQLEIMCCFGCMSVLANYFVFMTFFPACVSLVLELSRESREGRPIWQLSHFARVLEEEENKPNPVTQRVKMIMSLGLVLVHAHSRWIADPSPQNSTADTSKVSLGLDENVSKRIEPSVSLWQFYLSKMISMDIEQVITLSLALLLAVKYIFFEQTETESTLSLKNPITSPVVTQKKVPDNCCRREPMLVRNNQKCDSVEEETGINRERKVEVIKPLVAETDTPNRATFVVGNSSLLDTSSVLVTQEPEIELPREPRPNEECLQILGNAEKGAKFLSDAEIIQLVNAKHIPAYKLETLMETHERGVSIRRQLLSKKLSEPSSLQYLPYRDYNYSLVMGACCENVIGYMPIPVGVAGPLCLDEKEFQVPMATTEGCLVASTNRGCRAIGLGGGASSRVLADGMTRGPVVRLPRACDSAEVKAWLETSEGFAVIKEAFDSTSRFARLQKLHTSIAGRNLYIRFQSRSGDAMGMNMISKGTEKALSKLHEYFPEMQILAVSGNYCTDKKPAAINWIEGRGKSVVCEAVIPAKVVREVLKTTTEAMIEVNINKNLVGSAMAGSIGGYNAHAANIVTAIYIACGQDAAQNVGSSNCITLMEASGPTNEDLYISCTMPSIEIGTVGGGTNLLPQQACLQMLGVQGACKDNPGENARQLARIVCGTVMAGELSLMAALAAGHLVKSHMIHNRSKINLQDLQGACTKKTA
To be noted: micromolar amounts; cited from earlier work.

Take `Cc1c(C)c2c(c(C)c1O)CC[C@@](C)(CCC[C@H](C)CCC[C@H](C)CCCC(C)C)O2` [alpha-tocopherol]: in [1], the “upper tolerable intake level (UL)” value is recorded as 1,000 mg.

For `CC(C)=CCC/C(C)=C/CC/C(C)=C/CC[C@]1(C)CCc2cc(O)c(C)c(C)c2O1` [gamma-tocotrienol], in series [2], the “NF-KB activation induced by phorbol myristate acetate, okadaic acid, lipopolysaccharide, cigarette smoke, IL-1I, and epidermal growth factor” value was “abolished”; the “TAK 1/TAB 1-induced NF-KB dependant reporter gene expression” value was “inhibit”; the “constitutive NF-KB activation expressed by certain tumor cells” value is recorded as “nullified”; the “tumor necrosis factor a (TNF-a)-induced NF-KB activation” value is listed as “completely abolished”. In series [3], the “TNF-induced activation of IKBa kinase (IKK)” value is “inhibiting”. Moreover, the “TNF induced Akt activation” value in [4] is given as “inhibit”.

`Cc1c(O)cc2c(c1C)O[C@](C)(CCC[C@H](C)CCC[C@H](C)CCCC(C)C)CC2` [gamma-tocopherol]: the “tumor necrosis factor a (TNF-a)-induced NF-KB activation” value in series [2] was “no effect”.

In the case of tocotrienol, in [5], the “scar color, 5-point scale, blinded reviewers” value is on record as “significantly improved” and the “scar contour, 5-point scale, blinded reviewers” value was “significantly improved”. Moreover, in series [6], the “alpha-tocotrienol content in scar tissue” value is “significantly increased”. Also, the related adverse effects entry in series [7] (200 mg TCT twice a day, minimum 4 weeks prior to surgery, maximum over a year) was “no related adverse affects”. In addition, the reaching the skin entry in series [7] (oral dosage of 400 mg per day) is “sufficient to reach the skin”. Further, the appearance of scars result in [7] (pre-treatment with TCT, observations from ongoing study) is given as “Improves”. In series [8], the “tocotrienol in tissues such as skin, brain, lung” value is “enhancement”. Moreover, the “serum levels of IL-6” value in series [9] is reported as “significantly lower”. For the same compound, in series [10], the “reducing endothelial expression of adhesion molecules and adhesion to monocytes” value was “most effective”. In addition, the “activity of HMG-CoA reductase” value in series [11] is on record as “suppress”.
